Test results taken from PubChem BioAssay AID1159562 (GlaxoSmithKline (GSK), 2015).
pIC50: −log10 of the molar value. Activity calls are given as the source filed them. How the calls were made is not given here.

Tested on: Trypanosoma brucei growth inhibition, luminescence
Experiment: Trypanosoma brucei growth inhibition, luminescence (AID 1159562);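 further: parasites grew with compound for 24 h before the luminescence read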

Compound	pIC50	IC50
O=[N+]([O-])c1ccc(-c2nnn(-c3cccnc3)n2)o1	6.30	
OC[C@@H](Nc1nccc(-c2c(-c3ccc(F)cc3)ncn2C2CCNCC2)n1)c1ccccc1	6.20	
Nc1nonc1-c1nc2cncc(C(=O)N3CC[C@H](N)C3)c2n1CC1CC1	6.10	
O=C(c1ccc(O)c(Cl)c1)N1CCN(c2cnccn2)CC1		> 40 µM (inactive)
COc1ccccc1C=CCN1C[C@H]2CCC[C@@H](C1)C2(O)c1cccnc1 (stereo partly specified)		> 40 µM (inactive)
C=CCOCC1Cn2nc([N+](=O)[O-])nc2O1 (stereo unspecified)		> 40 µM (inactive)
O=C(Nc1nc(-c2ccccn2)cs1)C1CCc2ccccc2C1 (stereo unspecified)	5.49	
O=C1CN(C(=O)c2cccc(Nc3ncc(-c4ccc5c(c4)OCO5)cn3)c2)CCN1		> 50 µM (inactive)
Cc1ccc(NC(=O)c2ccnc(N3CCCC3)c2)cc1-c1ccsc1C(N)=O	7.20	
Cc1cc(N2CCc3ccccc3C2)nc(Nc2ccc(S(=O)(=O)N3CCOCC3)cc2)n1		> 40 µM (inactive)
COc1cc(OC)cc(C(=O)N[C@@H](CC(C)C)C(=O)NC2(C#N)CC2)c1	7.20	
COc1ccc([N+](=O)[O-])cc1NC(=O)Nc1cccc(Cl)c1	4.70	
COc1cccc(Nc2cc(C)nc(-c3ccccn3)n2)c1		> 40 µM (inactive)
Cc1nn(-c2ccccc2)nc1CNC(=O)CN(Cc1ccccn1)Cc1ccccn1	5.00	
Cc1nn(-c2nc(N)nc(-c3ccccn3)n2)c(C)c1Cc1ccccc1	5.20	
O=C(c1ccccc1)N1CCC(C(=O)N2CCC(Oc3ccccc3Cl)CC2)CC1	6.00	
COc1ccc(Nc2nc(-c3ccccn3)cs2)c(OC)c1	4.60	
CNC(=O)C1Cc2ccccc2N1C(=O)Cc1ccccc1 (stereo unspecified)	6.00	
CC(=O)NCCNc1cc(-c2ccnc(Nc3cccc(Cl)c3)n2)ccn1	6.70	
O=C(Nc1cccc(Cl)c1)N1CCCCC1c1cccnc1 (stereo unspecified)		> 40 µM (inactive)
CS(=O)(=O)c1cccc(CNC(=O)c2cncc(N3CCN(c4ccc(F)cc4)CC3)c2)c1		> 40 µM (inactive)
COc1ccc(-c2cnc(NC(=O)c3ccc(F)cc3)n2C)cc1	5.49	

Compound	pIC50	IC50
CC(C)C[C@H](NC(=O)c1csc(-c2cccs2)n1)C(=O)NC1(C#N)CC1	7.00	
COCc1cc(Nc2ccccc2)nc(-c2ccccn2)n1		> 40 µM (inactive)
COc1cc(OC)cc(C(NS(=O)(=O)c2ccc(Cl)c(C(F)(F)F)c2)c2nccn2C)c1 (stereo unspecified)	5.10	
COc1ccc(C(=O)[C@H]2C[C@@H]2CN(Cc2ccccn2)Cc2ccccn2)cc1	4.80	
Nc1nccc(-c2csc(Nc3ccc(Cl)cc3)n2)n1		> 40 µM (inactive)
Cc1nc(N2CCC(C(=O)N3CCC(O)(c4cccnc4)CC3)CC2)nc2ccc(C(C)C)cc12	4.49	
Cc1occc1C(=O)Nc1ccccc1C(=O)Nc1nccs1	6.30	
O=C1CSC(c2cccnc2)N1c1ccc(Cl)cc1Cl (stereo unspecified)		> 40 µM (inactive)
CCN(CC)S(=O)(=O)c1ccc(Cn2nc(C(=O)Nc3ccncn3)c3ccccc32)cc1		> 40 µM (inactive)
COc1ccc(S(=O)(=O)Nc2ccc(C(=O)Nc3nc(-c4ccccn4)cs3)cc2)cc1	6.20	
COc1ccc(S(=O)(=O)Nc2ccc(CN3CCN(C(=O)c4cccc(C#N)c4)CC3)cc2)cc1	6.20	
CCS(=O)(=O)c1cccc(C(=O)Nc2nc(-c3ccccn3)cs2)c1	6.20	
COc1ccc(Nc2nccc(N(C)c3n[nH]c4c(F)cccc34)n2)cc1S(C)(=O)=O	5.00	
Cc1nc(C(=O)Nc2ccc3c(c2)OCO3)nn1-c1ccc(F)cc1		> 40 µM (inactive)
O=C(CN1CCN(S(=O)(=O)c2cccc([N+](=O)[O-])c2)CC1)Nc1ccc(Oc2ccccc2)cc1	4.80	
NC(=O)c1cc(F)ccc1Nc1nc(NC2CCC(O)CC2)ncc1Br (stereo unspecified)	6.49	
COc1cccc(CCNC(=O)C(c2cn[nH]c2)N2CCN(c3ccc(Cl)cc3)CC2)c1 (stereo unspecified)	4.49	
Cc1ccc(NC(=O)c2ccc(Cl)c(NC(=O)c3ccc([N+](=O)[O-])cc3)c2)cc1	4.80	
COc1ccc2ncc(=O)n(CCN3CC[C@H](NCc4ncc(Cl)c5[nH]ncc45)[C@H](O)C3)c2n1	6.30	
COc1ccc(-c2ccc3nnc(-c4ccc(O)c(OC)c4)n3c2)cn1	5.60	
N#Cc1cccc(CN2CCC(c3nc(-c4ccc(C(F)(F)F)nc4)no3)CC2)c1		> 40 µM (inactive)
Cc1c(C(C)NC(=O)Nc2cccc(Cl)c2)sc2ncnn12 (stereo unspecified)		> 40 µM (inactive)

Compound	pIC50	IC50
O=C(N[C@H](CO)c1ccccc1)c1ccc(-c2c[nH]c3nccc(C(F)(F)F)c23)s1	6.40	
CC1(Oc2cncc(Cl)c2)CCN(Cc2cc3ccccc3[nH]2)C1 (stereo unspecified)		> 40 µM (inactive)
COCCn1c(-c2ccc3c(c2)OCO3)cnc1NCc1ccccc1OC	4.60	
COc1ncc(-c2ccc3nccc(-c4ccncc4)c3c2)cc1NS(C)(=O)=O	6.00	
CCCN1CCN(Cc2ccc(S(=O)(=O)Nc3cccc(C)c3)cc2)CC1		> 40 µM (inactive)
Cc1cc(C)n(-c2nc(NC(C)(C)C)nc(N3CCOCC3)n2)n1	5.40	
Cc1ccccc1CNc1cc(C2CC2)nc(-c2nccn2C)n1	5.80	
O=S(=O)(NCC(c1cccnc1)N1CCN(c2ccc(F)cc2)CC1)c1cccs1 (stereo unspecified)		> 40 µM (inactive)
CCC1Oc2cc(S(=O)(=O)N(C)CC(=O)N3CCc4ccccc4C3)c(C)cc2NC1=O (stereo unspecified)	4.49	
O=c1oc2ccccc2n1C1CCN(Cc2ccccc2-c2cccnc2)CC1		> 40 µM (inactive)
O=C(CN(Cc1ccccn1)Cc1ccccn1)NCc1csc(-c2cccs2)n1	4.80	
O=C(Nc1ccc(C(=O)N2CCCC2c2ccc3c(c2)OCCCO3)cc1)c1ccco1 (stereo unspecified)	6.49	
CCOC(=O)c1noc(N)c1-c1ccccc1	6.20	
COc1cccc(NS(=O)(=O)c2ccc3[nH]cc(C(=O)NCCC(C)C)c(=O)c3c2)c1	6.20	
O=S(=O)(c1cccc(CSc2nnc(-c3ccc4c(c3)OCO4)o2)c1)N1CCOCC1		> 40 µM (inactive)
COc1ccc(NS(=O)(=O)c2cc(-c3cc(C)[nH]n3)ccc2C)cc1OC	6.20	
O=C(NCC(c1cccnc1)N1CCc2ccccc2C1)C(=O)Nc1cccc(Cl)c1 (stereo unspecified)	4.70	
CC(C)(C)C(O)(CCc1ccc(Cl)cc1)Cn1cncn1 (stereo unspecified)		> 40 µM (inactive)
Cc1cc2cncn2c(C2CCCCN2C(=O)c2cccs2)n1 (stereo unspecified)		> 40 µM (inactive)
O=C(CN(Cc1ccccn1)Cc1ccccn1)NCc1ccc(-c2csnn2)cc1	5.10	
CS(=O)(=O)c1cccc(-c2cnc(N)c3c(-c4ccc(CO)cc4)csc23)c1	5.30	
O=C(NCc1nnc2n1CCCCC2)c1csc(-c2ccccc2)n1	6.40	

Compound	pIC50	IC50
COc1ccc(CNc2cc(C3CC3)nc(-c3nccn3C)n2)cc1	5.60	
CC(C)(C)C(Cn1ccnc1)NC(=O)c1ccc2nc(C3CC3)oc2c1 (stereo unspecified)		> 40 µM (inactive)
Cc1cc(Nc2cc(C3CC3)[nH]n2)nc(N2CCC[C@H]2C(N)=O)n1	7.20	
C[C@@H](Oc1cc(-n2cnc3ccc(CC(O)CO)cc32)sc1C(N)=O)c1ccccc1Cl (stereo partly specified)	6.10	
COc1ccc(C2C3CCCCC3(O)CCN2CC(=O)Nc2ccc(Cl)cc2Cl)cc1 (stereo unspecified)	4.60	
CCN(CC)c1ccc(S(=O)(=O)N(CC)CC)c2nonc12	4.60	
O=C(Nc1ncc([N+](=O)[O-])s1)C1CC1	4.40	
CC(C)Nc1nc(Cl)nc2ccccc12	4.89	
CCN(CC)c1ncc(C(=O)c2ccc([N+](=O)[O-])o2)s1	6.40	
COc1cccc2sc(CN(C)C(=O)C3CNCCN3c3ccc(F)cc3)c(C)c12 (stereo unspecified)	6.60	
O=C(c1ccc(OCCCc2cnc[nH]2)cc1)C1CC1		> 40 µM (inactive)
COc1ccc(CN2CCCCC2c2nc(-c3cccnc3)no2)cc1 (stereo unspecified)		> 40 µM (inactive)
Cc1ccc(S(=O)(=O)Nc2ccc(CN3CCN(C(=O)c4cccc(C)c4)CC3)cc2)cc1	6.30	
COc1ccc(NS(=O)(=O)c2cc(NC(=O)c3ccc([N+](=O)[O-])s3)ccc2OC)cc1	6.89	
CC(C)(C)c1cc(NC2CC2)nc(-c2ccccn2)n1	5.60	
Cc1[nH]n2c(=O)c3c(nc2c1-c1ccc(Cl)cc1)CCCC3	6.49	
O=C(NNC(=O)c1ccccn1)c1ccc(-c2ccccc2)cc1	6.20	
CCc1ccc2nc(NC(=O)c3cc(N4CCOCC4)ccn3)sc2c1	6.00	
Cc1cc(=O)n2nc(Oc3ccc(C#N)cc3Cl)sc2n1	6.49	
Cc1cc2nc(CN(C)Cc3ncccc3C)[nH]c2cc1C	6.20	
CN(C(=O)Nc1ccc2c(c1)CCN(C1CCC1)CC2)c1ccc(C#N)cc1	6.20	
CN(Cc1ccc(F)cc1)c1ccc(OCC(=O)N2CCCCC2c2cccnc2)nn1 (stereo unspecified)		> 40 µM (inactive)

Compound	pIC50	IC50
O=C1OCc2ccc(Nc3nccc(-c4cnn5ncccc45)n3)cc21	7.70	
O=C(Nc1ccccc1C(=O)Nc1ccccn1)c1ccco1	6.30	
COc1ccccc1-n1c(SCC(=O)Nc2ccc3c(c2)OCO3)nc2c(c1=O)SCC2		> 40 µM (inactive)
Cc1ncsc1CNc1cnc(-c2ccc3c(c2)OCCO3)c(-c2cnn(C)c2)c1	6.70	
O=C(Nc1nccs1)c1ccccc1Cn1cc([N+](=O)[O-])cn1	6.30	
NC(=O)c1ncccc1Nc1nc(NC2CCC(O)CC2)ncc1Br (stereo unspecified)	6.20	
CCCC(=O)N(Cc1ccccn1)c1nc2ccccc2s1		> 40 µM (inactive)
CC(=Cc1ccccc1)CN1CCC(=O)N(Cc2cccnc2)CC1		> 40 µM (inactive)
O=C(CN(Cc1ccccn1)Cc1ccccn1)NC1Cc2ccccc2C1	4.89	
O=C1CCCCCC1(Cc1cnc[nH]1)c1ccc(Cl)cc1Cl (stereo unspecified)		> 40 µM (inactive)
Cn1c(CC(=O)NNC(=O)c2ccc3ccccc3n2)nc2ccccc21	5.20	
CS(=O)(=O)c1ccccc1C(=O)N(Cc1ccccc1)c1ccccc1	6.20	
CC(C)c1cc(C(=O)N2CCCC(c3cc4ncccc4[nH]3)C2)on1 (stereo unspecified)		> 40 µM (inactive)
O=C(CSc1nnc(-c2ccc3c(c2)OCO3)o1)N(Cc1ccco1)CC(F)(F)F		> 40 µM (inactive)
Cc1cc(NC(=O)c2ccc([N+](=O)[O-])s2)ccc1Br	5.30	
Cn1nc([N+](=O)[O-])nc1N1CCCCC1		> 40 µM (inactive)
CCNc1cc(-c2ccccn2)nc(Nc2ccc(OC)cc2)n1	5.00	
Cc1nc2c(-c3cccs3)c(C)nn2c(NCCO)c1C	6.70	
